The values below come from US20220281819A1, “THERAPEUTIC COMPOUNDS AND METHODS OF USE” (priority 2020, published 2022).

Holding throughout (assay type): binding
The target of one assay is TEAD1 (Homo sapiens, UniProt P28347). The assay is described as follows: Lipid HTRF (TR-FRET lipid pocket probe competition), 30 min pre-incubation, TEAD1. The protocol: (§1) His-tagged TEAD proteins are pre-incubated with TEAD project compounds for 30 minutes at room temperature. Biotinylated lipid pocket probes are then added to the TEAD/Compound mixture and incubated for 60 minutes at room temperature. The lipid pocket probe competes with the test compound for the TEAD lipid pocket until equilibrium is reached. After 60 minutes, Europium labelled anti-His (Perkin Elmer #AD0110) and XL665 labelled streptavidin (CIS Bio 610SAXAC) are added to the TEAD/test compound/lipid pocket mixture and incubated for 30 minutes. […] If a TEAD lipid pocket binder such as binds and displaces the lipid pocket probe, the disruption of the TEAD:probe interaction results in a decrease in TR-FRET signal. The potency of compounds as TEAD lipid pocket binders is determined by IC50 value generated using a non-linear 4 parameter curve fit.
Sequence of TEAD1 (P28347 whole entry, species assumed): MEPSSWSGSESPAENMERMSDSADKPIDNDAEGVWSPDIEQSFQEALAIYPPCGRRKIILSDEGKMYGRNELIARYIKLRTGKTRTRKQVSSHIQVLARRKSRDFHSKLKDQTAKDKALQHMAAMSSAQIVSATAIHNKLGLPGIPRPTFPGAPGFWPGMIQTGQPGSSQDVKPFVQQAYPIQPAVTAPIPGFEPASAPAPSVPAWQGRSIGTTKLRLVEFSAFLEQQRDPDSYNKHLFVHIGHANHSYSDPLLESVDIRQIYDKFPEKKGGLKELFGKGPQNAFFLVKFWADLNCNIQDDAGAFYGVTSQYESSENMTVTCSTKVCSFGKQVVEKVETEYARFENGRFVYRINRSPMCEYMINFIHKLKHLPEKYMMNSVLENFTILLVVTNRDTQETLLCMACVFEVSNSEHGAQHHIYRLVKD
(Time-resolved FRET reads energy transfer from a long-lived donor to a nearby acceptor.)

A further assay deals with TEAD4 (Homo sapiens, UniProt Q15561). The assay is described as follows: Lipid HTRF (TR-FRET lipid pocket probe competition), 30 min pre-incubation, TEAD4. The protocol:
as §1

The next assay deals with TEAD2 (Homo sapiens, UniProt Q15562). The assay is described as follows: Lipid HTRF (TR-FRET lipid pocket probe competition), 30 min pre-incubation, TEAD2. How it is done: as §1
Sequence of TEAD2 (Q15562 whole entry, species assumed): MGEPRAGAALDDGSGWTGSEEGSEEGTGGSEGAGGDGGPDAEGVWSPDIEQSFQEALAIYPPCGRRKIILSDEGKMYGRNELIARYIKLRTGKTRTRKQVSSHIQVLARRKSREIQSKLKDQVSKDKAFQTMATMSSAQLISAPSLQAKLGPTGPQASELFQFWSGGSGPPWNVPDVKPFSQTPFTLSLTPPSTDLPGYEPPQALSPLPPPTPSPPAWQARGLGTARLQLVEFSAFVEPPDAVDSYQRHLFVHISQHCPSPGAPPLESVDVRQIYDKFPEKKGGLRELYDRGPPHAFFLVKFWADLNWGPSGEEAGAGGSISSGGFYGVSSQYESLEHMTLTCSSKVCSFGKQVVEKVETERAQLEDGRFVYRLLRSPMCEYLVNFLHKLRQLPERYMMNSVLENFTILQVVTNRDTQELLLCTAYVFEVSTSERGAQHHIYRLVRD
A further assay addresses TEAD3 (Homo sapiens, UniProt Q99594). The assay is described as follows: Lipid HTRF (TR-FRET lipid pocket probe competition), 30 min pre-incubation, TEAD3. How it is done: as §1
The mark [1] stands for this setting: His-tagged TEAD1, 30 minutes pre-incubation with compound at room temperature, read-out: Lipid HTRF TEAD1 IC50.
Where [2] appears, read: His-tagged TEAD4, 30 minutes pre-incubation with compound at room temperature, read-out: Lipid HTRF TEAD4 IC50.
The mark [3] stands for this setting: His-tagged TEAD2, 30 minutes pre-incubation with compound at room temperature, read-out: Lipid HTRF TEAD2 IC50.
[4] abbreviates: His-tagged TEAD3, 30 minutes pre-incubation with compound at room temperature, read-out: Lipid HTRF TEAD3 IC50.
Where [5] appears, read: Lipid HTRF TEAD1 IC50, His-tagged TEAD1, 30 minutes pre-incubation with compound at room temperature.
Where [6] appears, read: Lipid HTRF TEAD4 IC50, His-tagged TEAD4, 30 minutes pre-incubation with compound at room temperature.
Setting [7] is: Lipid HTRF TEAD2 IC50, His-tagged TEAD2, 30 minutes pre-incubation with compound at room temperature.
Setting [8] is: Lipid HTRF TEAD3 IC50, His-tagged TEAD3, 30 minutes pre-incubation with compound at room temperature.

Read-outs that look alike come from different tables or passages of the source.

Sequence of TEAD4 (Q15561 whole entry, species assumed): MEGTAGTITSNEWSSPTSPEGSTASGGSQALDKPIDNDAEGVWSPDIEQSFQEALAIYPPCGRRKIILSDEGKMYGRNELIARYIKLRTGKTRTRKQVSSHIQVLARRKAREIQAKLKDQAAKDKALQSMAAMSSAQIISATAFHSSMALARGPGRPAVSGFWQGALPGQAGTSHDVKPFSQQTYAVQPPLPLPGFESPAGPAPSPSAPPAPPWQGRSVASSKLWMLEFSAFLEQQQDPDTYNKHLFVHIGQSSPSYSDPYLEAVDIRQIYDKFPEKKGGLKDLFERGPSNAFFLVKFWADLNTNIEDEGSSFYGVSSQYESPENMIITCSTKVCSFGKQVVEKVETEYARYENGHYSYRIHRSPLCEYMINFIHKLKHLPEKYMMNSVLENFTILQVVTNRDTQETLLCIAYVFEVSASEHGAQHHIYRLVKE
Sequence of TEAD3 (Q99594 whole entry, species assumed): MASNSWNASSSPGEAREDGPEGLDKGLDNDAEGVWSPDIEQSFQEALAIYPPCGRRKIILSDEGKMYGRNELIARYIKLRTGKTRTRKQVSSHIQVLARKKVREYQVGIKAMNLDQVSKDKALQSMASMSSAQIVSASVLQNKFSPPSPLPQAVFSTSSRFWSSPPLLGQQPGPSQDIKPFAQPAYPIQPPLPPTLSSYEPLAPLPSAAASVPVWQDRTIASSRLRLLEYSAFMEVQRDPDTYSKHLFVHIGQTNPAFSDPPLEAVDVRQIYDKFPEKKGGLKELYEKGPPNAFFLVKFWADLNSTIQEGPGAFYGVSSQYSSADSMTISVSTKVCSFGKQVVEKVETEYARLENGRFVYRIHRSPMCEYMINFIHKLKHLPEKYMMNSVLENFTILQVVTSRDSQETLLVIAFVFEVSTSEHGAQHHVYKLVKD

For `C=CC(=O)Nc1ccc(OC)c(/C=C/CC2CCCC2)c1` [Final product from Example 14, (E)-N-(3-(3-cyclopentylprop-1-en-1-yl)-4-methoxyphenyl)acrylamide], the IC50 on TEAD1 (setting [1]) was 40 nM; at TEAD4 (setting [2]), 70 nM; at TEAD2 (setting [3]), 30 nM; on TEAD3 (setting [4]), 60 nM.
For `C=CC(=O)N(CCO)c1cc(/C=C/[C@H]2CC[C@H](C(F)(F)F)CC2)c(OC)cn1` [Final product from Example 15, N-(2-Hydroxyethyl)-N-(5-methoxy-4-((E)-2-(trans-4-(trifluoromethyl)cyclohexyl)vinyl)pyridin-2-yl)acrylamide] the same measures were 2200 nM, 340 nM, 730 nM and 4100 nM.
For `C=CC(=O)Nc1cc(-c2ccc(C(C)C)cc2)c(OC)cc1F` [Final product from Example 16, N-(4-fluoro-4′-isopropyl-6-methoxy-[1,1′-biphenyl]-3-yl)acrylamide] the same measures were 140 nM, 280 nM, 540 nM and 90 nM.
For `C=CC(=O)Nc1cc(/C=C/c2ccc(Cl)cc2)c2c(c1)CCO2` [Final product from Example 17, (E)-N-(7-(4-chlorostyryl)-2,3-dihydrobenzofuran-5-yl)acrylamide], in that order: 710 nM, 470 nM, 1300 nM and 5300 nM.
Turning to `C=CC(=O)Nc1cnc(OC)c(/C=C/CC(C)C)c1` [Final product from Example 18, (E)-N-(6-methoxy-5-(4-methylpent-1-en-1-yl)pyridin-3-yl)acrylamide], the IC50 was 220 nM at TEAD1 (setting [1]), 760 nM on TEAD4 (setting [2]), 210 nM at TEAD2 (setting [3]) and 430 nM on TEAD3 (setting [4]).
For `C=CC(=O)Nc1cnc(OC)c(/C=C/C2CC(F)(F)C2)c1` [Final product from Example 19, (E)-N-(5-(2-(3,3-difluorocyclobutyl)vinyl)-6-methoxypyridin-3-yl)acrylamide], in that order: 1350 nM, 5750 nM, 2550 nM and 3150 nM.
For `C=C(C(=O)Nc1cnc(OC)c(/C=C/C2CCC(F)(F)CC2)c1)c1ccccc1` [Final product from Example 20, (E)-N-(5-(2-(4,4-Difluorocyclohexyl)vinyl)-6-methoxypyridin-3-yl)-2-phenylacrylamide], in that order: 120 nM, 40 nM, 540 nM and 410 nM.
For `COc1ncc(NC(=O)/C=C/C#N)cc1/C=C/C1CCC(F)(F)CC1` [Final product from Example 21, (E)-3-cyano-N-(5-((E)-2-(4,4-difluorocyclohexyl)vinyl)-6-methoxypyridin-3-yl)acrylamide] the same measures were 80 nM, 60 nM, 360 nM and 160 nM.
Turning to `C=CC(=O)Nc1ccc(OC)c(/C=C/[C@H]2CC[C@H](C(F)(F)F)CC2)c1` [Final product from Example 22, N-(4-Methoxy-3-((E)-2-(trans-4-(trifluoromethyl)cyclohexyl)vinyl)phenyl)acrylamide], the IC50 on TEAD1 (setting [1]) was 190 nM; on TEAD4 (setting [2]), 120 nM; on TEAD2 (setting [3]), 250 nM; on TEAD3 (setting [4]), 450 nM.
In the case of `C=CC(=O)Nc1ccc(OC)c(/C=C/C2CCC(F)(F)CC2)c1` [Final product from Example 23, (E)-N-(3-(2-(4,4-Difluorocyclohexyl)vinyl)-4-methoxyphenyl)acrylamide], the concentration for half-maximal inhibition (IC50) is 50 nM on TEAD1 (setting [1]), 170 nM on TEAD4 (setting [2]), 410 nM on TEAD2 (setting [3]) and 80 nM at TEAD3 (setting [4]).
For `C=CC(=O)Nc1cc(/C=C/[C@H]2CC[C@H](C(F)(F)F)CC2)c(OC)nc1-c1ccccc1` [Final product from Example 24, N-(6-Methoxy-2-phenyl-5-((E)-2-(trans-4-(trifluoromethyl)cyclohexyl)vinyl)pyridin-3-yl)acrylamide], in that order: 1600 nM, 560 nM, 210 nM and above 50000 nM.
Take `C=CC(=O)Nc1cc(/C=C/[C@H]2CC[C@H](C(F)(F)F)CC2)c(OC)nc1CO` [Final product from Example 25, N-(2-(Hydroxymethyl)-6-methoxy-5-((E)-2-(trans-4-(trifluoromethyl)cyclohexyl)vinyl)pyridin-3-yl)acrylamide]: the IC50 at TEAD1 (setting [1]) came to 40 nM; on TEAD4 (setting [2]), 40 nM; at TEAD2 (setting [3]) it was 10 nM; at TEAD3 (setting [4]), 360 nM.
As to `C=CC(=O)Nc1cc(/C=C/[C@H]2CC[C@H](C(F)(F)F)CC2)c(OC)nc1OC` [Final product from Example 26, N-(2,6-Dimethoxy-5-((E)-2-(trans-4-(trifluoromethyl)cyclohexyl)vinyl)pyridin-3-yl)acrylamide], the IC50 on TEAD1 (setting [1]) was 240 nM; at TEAD4 (setting [2]), 80 nM; on TEAD2 (setting [3]), 150 nM; at TEAD3 (setting [4]), 1000 nM.
For `C=CC(=O)Nc1ncc(OC)c(/C=C/C2CCC(F)(F)CC2)n1` [Final product from Example 27, (E)-N-(4-(2-(4,4-Difluorocyclohexyl)vinyl)-5-methoxypyrimidin-2-yl)acrylamide], in that order: 200 nM, 70 nM, 530 nM and 160 nM.
For `C=CC(=O)Nc1cc(/C=C/[C@H]2CC[C@H](C(F)(F)F)CC2)c(OC)nc1C(N)=O` [Final product from Example 28, 3-Acrylamido-6-methoxy-5-((E)-2-(trans-4-(trifluoromethyl)cyclohexyl)vinyl) picolinamide], in that order: 230 nM, 100 nM, 1400 nM and 560 nM.
For `C=CC(=O)Nc1cc(/C=C/C2CCC(F)(F)CC2)c(C#N)cn1` [Final product from Example 29, (E)-N-(5-Cyano-4-(2-(4,4-difluorocyclohexyl)vinyl)pyridin-2-yl)acrylamide] the same measures were 50 nM, 20 nM, 40 nM and 40 nM.
For `C=C(CNc1cnc(OC)c(/C=C/[C@H]2CC[C@H](C(F)(F)F)CC2)c1)C(=O)O` [Final product from Example 30, 2-(((6-methoxy-5-((E)-2-(trans-4-(trifluoromethyl)cyclohexyl)vinyl)pyridin-3-yl)amino)methyl)acrylic acid], the IC50 at TEAD1 (setting [5]) was determined as 580 nM; at TEAD4 (setting [6]) it was 140 nM; on TEAD2 (setting [7]) it was 270 nM; at TEAD3 (setting [8]) it was 1250 nM.
On to `C=C(CNc1cnc(C#N)c(/C=C/[C@H]2CC[C@H](C(F)(F)F)CC2)c1)C(=O)O` [Final product from Example 31, 2-(((6-Cyano-5-((E)-2-(trans-4-(trifluoromethyl)cyclohexyl)vinyl)pyridin-3-yl)amino)methyl)acrylic acid], for which the IC50 on TEAD1 (setting [5]) is 4800 nM; at TEAD4 (setting [6]) it was 1500 nM; at TEAD2 (setting [7]), 1700 nM; on TEAD3 (setting [8]) it was 970 nM.

The term IC50 denotes the concentration that inhibits the measured activity by half.
